Target: Norovirus polymerase (NoVpol, genotype II) (Lordsdale virus, UniProt P54634)
Experiment: biochemical
Details: not given

Norovirus polymerase (NoVpol, genotype II), sequence (P54634 1190-1699 limits assumed): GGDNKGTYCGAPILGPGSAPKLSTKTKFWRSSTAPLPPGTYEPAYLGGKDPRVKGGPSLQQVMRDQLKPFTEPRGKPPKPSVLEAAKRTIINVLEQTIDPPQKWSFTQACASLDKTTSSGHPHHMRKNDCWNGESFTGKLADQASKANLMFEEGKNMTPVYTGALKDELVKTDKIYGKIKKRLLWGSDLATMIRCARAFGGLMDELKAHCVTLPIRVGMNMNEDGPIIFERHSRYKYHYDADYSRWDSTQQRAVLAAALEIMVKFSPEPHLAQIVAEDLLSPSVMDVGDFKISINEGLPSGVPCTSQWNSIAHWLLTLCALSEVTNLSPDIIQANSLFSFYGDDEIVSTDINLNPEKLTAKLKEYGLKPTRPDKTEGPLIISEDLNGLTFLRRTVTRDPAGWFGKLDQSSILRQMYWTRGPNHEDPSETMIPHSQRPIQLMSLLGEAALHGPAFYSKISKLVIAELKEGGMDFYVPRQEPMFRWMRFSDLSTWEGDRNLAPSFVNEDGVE

Row | Structure (SMILES) | IC50 [µM]
1 | CC[C@]1(COP(=O)(O)OP(=O)(O)OP(=O)(O)O)O[C@@H](n2ccc(=O)[nH]c2=O)[C@H](F)[C@@H]1O [Compound 37a] | 1 to 10
2 | Nc1ccn([C@@H]2O[C@](CF)(COP(=O)(O)OP(=O)(O)OP(=O)(O)O)[C@@H](O)[C@H]2F)c(=O)n1 [Compound 56c] | < 1
3 | C[C@@]1(O)[C@H](O)[C@@](CF)(CO[P@](O)(=S)OP(=O)(O)OP(=O)(O)O)O[C@H]1n1ccc(=O)[nH]c1=O [Compound 171a] | < 1
4 | C[C@]1(O)C(n2ccc(=O)[nH]c2=O)O[C@H](COP(=O)(O)OP(=O)(O)OP(=O)(O)O)[C@H]1O (some centres unmarked) [Compound 260a] | 1 to 10
5 | C#C[C@@]1(O)[C@H](O)[C@@H](COP(O)(=S)OP(=O)(O)OP(=O)(O)O)O[C@H]1n1ccc(=O)[nH]c1=O (some centres unmarked) [Compound 286a] | 1 to 10

Same assay, conditions: 50 nM recombinant enzyme, 2.5 hours at 30° C.; read-out: IC50

Row | Structure (SMILES) | IC50 [µM]
6 | CCC[C@]1(CO)O[C@@H](n2ccc(N)nc2=O)[C@H](F)[C@@H]1O [Compound 21a] | 1 to 10
7 | C=C[C@]1(COP(=O)(O)OP(=O)(O)OP(=O)(O)O)O[C@@H](n2cnc3c(=O)[nH]c(N)nc32)[C@H](F)[C@@H]1O [Compound 34a] | < 1
8 | C#C[C@]1(COP(=O)(O)OP(=O)(O)OP(=O)(O)O)O[C@@H](n2cnc3c(=O)[nH]c(N)nc32)[C@H](F)[C@@H]1O [Compound 34b] | < 1
9 | N#C[C@]1(COP(=O)(O)OP(=O)(O)OP(=O)(O)O)O[C@@H](n2cnc3c(=O)[nH]c(N)nc32)[C@H](F)[C@@H]1O [Compound 34e] | < 1
10 | C=C[C@]1(COP(=O)(O)OP(=O)(O)OP(=O)(O)O)O[C@@H](n2ccc(N)nc2=O)[C@H](F)[C@@H]1O [Compound 36b] | 1 to 10
11 | C#C[C@]1(COP(=O)(O)OP(=O)(O)OP(=O)(O)O)O[C@@H](n2ccc(N)nc2=O)[C@H](F)[C@@H]1O [Compound 36c] | 1 to 10
12 | CO[C@]1(COP(=O)(O)OP(=O)(O)OP(=O)(O)O)O[C@@H](n2ccc(N)nc2=O)[C@H](F)[C@@H]1O [Compound 36d] | 1 to 10
13 | O=c1ccn([C@@H]2O[C@](CCl)(COP(=O)(O)OP(=O)(O)OP(=O)(O)O)[C@@H](O)[C@H]2F)c(=O)[nH]1 [Compound 56a] | 1 to 10
14 | Cc1cn([C@@H]2O[C@](CCl)(COP(=O)(O)OP(=O)(O)OP(=O)(O)O)[C@@H](O)[C@H]2F)c(=O)nc1N [Compound 97d] | 1 to 10
15 | Nc1nc(=O)n([C@@H]2O[C@](CCl)(COP(=O)(O)OP(=O)(O)OP(=O)(O)O)[C@@H](O)[C@H]2F)cc1F [Compound 97g] | 1 to 10
16 | O=c1[nH]cnc2c1ncn2[C@@H]1O[C@](CCl)(COP(=O)(O)OP(=O)(O)OP(=O)(O)O)[C@@H](O)[C@H]1F [Compound 98b] | 1 to 10
17 | Nc1ncnc2c1ncn2[C@@H]1O[C@](CF)(COP(=O)(O)OP(=O)(O)OP(=O)(O)O)[C@@H](O)[C@H]1F [Compound 98c] | < 1
18 | O=c1ccn([C@@H]2O[C@](CF)(COP(=O)(O)OP(=O)(O)OP(=O)(O)O)[C@@H](O)[C@H]2F)c(=O)[nH]1 [Compound 111a] | < 1
19 | [N-]=[N+]=NC[C@]1(COP(=O)(O)OP(=O)(O)OP(=O)(O)O)O[C@@H](n2ccc(=O)[nH]c2=O)[C@H](F)[C@@H]1O [Compound 114a] | < 1
20 | [N-]=[N+]=NC[C@]1(COP(=O)(O)OP(=O)(O)OP(=O)(O)O)O[C@@H](n2ccc(N)nc2=O)[C@H](F)[C@@H]1O [Compound 115a] | 1 to 10
21 | Nc1nc2c(ncn2[C@@H]2O[C@](CCl)(COP(=O)(O)OP(=O)(O)OP(=O)(O)O)[C@@H](O)[C@H]2F)c(=O)[nH]1 [Compound 116a] | 1 to 10
22 | C[C@]1(O)[C@H](n2ccc(=O)[nH]c2=O)O[C@](F)(COP(=O)(O)OP(=O)(O)OP(=O)(O)O)[C@H]1O [Compound 122a] | 1 to 10
23 | [N-]=[N+]=NC[C@]1(COP(=O)(O)OP(=O)(O)OP(=O)(O)O)O[C@@H](n2cnc3c(N)ncnc32)[C@H](F)[C@@H]1O [Compound 212a] | 1 to 10
24 | C[C@]1(F)[C@H](n2cnc3c(=O)[nH]c(N)nc32)O[C@](F)(COP(=O)(O)OP(=O)(O)OP(=O)(O)O)[C@H]1O [Compound 214a] | < 1
25 | C[C@@]1(O)[C@H](O)[C@@](CF)(COP(=O)(O)OP(=O)(O)OP(=O)(O)O)O[C@H]1n1cnc2c(=O)[nH]c(N)nc21 [Compound 216a] | < 1
26 | C[C@]1(O)[C@H](n2ccc(=O)[nH]c2=O)O[C@](C)(COP(=O)(O)OP(=O)(O)OP(=O)(O)O)[C@H]1O [Compound 217a] | < 1
27 | C#C[C@@]1(O)[C@H](O)[C@@](CF)(COP(=O)(O)OP(=O)(O)OP(=O)(O)O)O[C@H]1n1ccc(=O)[nH]c1=O [Compound 219a] | < 1
28 | C=C[C@]1(COP(=O)(O)OP(=O)(O)OP(=O)(O)O)O[C@@H](n2ccc(=O)[nH]c2=O)C(F)(F)[C@@H]1O [Compound 221a] | 1 to 10
29 | O=c1ccn([C@@H]2O[C@](CCl)(COP(=O)(O)OP(=O)(O)OP(=O)(O)O)[C@@H](O)C2(F)F)c(=O)[nH]1 [Compound 222a] | 10 to 100
30 | C=C[C@]1(COP(=O)(O)OP(=O)(O)OP(=O)(O)O)O[C@@H](n2ccc(N)nc2=O)C(F)(F)[C@@H]1O [Compound 224a] | 1 to 10
31 | Nc1ccn([C@@H]2O[C@](CF)(COP(=O)(O)OP(=O)(O)OP(=O)(O)O)[C@@H](O)C2(F)F)c(=O)n1 [Compound 227a] | 1 to 10
32 | C#C[C@@]1(O)[C@H](O)[C@@](CF)(COP(=O)(O)OP(=O)(O)OP(=O)(O)O)O[C@H]1n1cnc2c(N)ncnc21 [Compound 230a] | < 1
33 | C[C@]1(O)[C@H](n2cnc3c(=O)[nH]c(N)nc32)O[C@](F)(COP(=O)(O)OP(=O)(O)OP(=O)(O)O)[C@H]1F [Compound 232a] | < 1

More lines, now with the values ahead:

Row | IC50 [µM] | Structure (SMILES)
34 | < 1 | C#C[C@]1(O)[C@H](n2cnc3c(=O)[nH]c(N)nc32)O[C@](F)(COP(=O)(O)OP(=O)(O)OP(=O)(O)O)[C@H]1F [Compound 233a]
35 | < 1 | C#C[C@]1(O)[C@H](n2cnc3c(=O)[nH]c(N)nc32)O[C@](F)(COP(=O)(O)OP(=O)(O)OP(=O)(O)O)[C@H]1O [Compound 236a]
36 | < 1 | C#C[C@]1(F)[C@H](n2cnc3c(=O)[nH]c(N)nc32)O[C@](F)(COP(=O)(O)OP(=O)(O)OP(=O)(O)O)[C@H]1O [Compound 237a]
37 | < 1 | C[C@]1(O)[C@H](n2ccc(N)nc2=O)O[C@](F)(COP(=O)(O)OP(=O)(O)OP(=O)(O)O)[C@H]1O [Compound 238a]
38 | 1 to 10 | C[C@]1(Cl)[C@H](n2ccc(=O)[nH]c2=O)O[C@](F)(COP(=O)(O)OP(=O)(O)OP(=O)(O)O)[C@H]1O [Compound 239a]
39 | 10 to 100 | C[C@]1(F)[C@H](n2ccc(=O)[nH]c2=O)O[C@](F)(COP(=O)(O)OP(=O)(O)OP(=O)(O)O)[C@H]1O [Compound 242a]
40 | 1 to 10 | C[C@@]1(Cl)[C@H](O)[C@@H](COP(=O)(O)OP(=O)(O)OP(=O)(O)O)O[C@H]1n1ccc(N)nc1=O [Compound 262a]
41 | < 1 | [N-]=[N+]=N[C@]1(COP(=O)(O)OP(=O)(O)OP(=O)(O)O)O[C@@H](n2ccc(=O)[nH]c2=O)[C@H](O)[C@@H]1O [Compound 264a]
42 | < 1 | [N-]=[N+]=N[C@]1(COP(=O)(O)OP(=O)(O)OP(=O)(O)O)O[C@@H](n2ccc(=O)[nH]c2=O)[C@H](F)[C@@H]1O [Compound 267a]
43 | < 1 | [N-]=[N+]=N[C@]1(COP(=O)(O)OP(=O)(O)OP(=O)(O)O)O[C@@H](n2cnc3c(=O)[nH]c(N)nc32)[C@H](O)[C@@H]1O [Compound 268a]
44 | < 1 | [N-]=[N+]=N[C@]1(COP(=O)(O)OP(=O)(O)OP(=O)(O)O)O[C@@H](n2cnc3c(=O)[nH]c(N)nc32)[C@H](F)[C@@H]1O [Compound 269a]
45 | < 1 | [N-]=[N+]=N[C@]1(COP(=O)(O)OP(=O)(O)OP(=O)(O)O)O[C@@H](n2ccc(N)nc2=O)[C@@H](O)[C@@H]1O [Compound 270a]
46 | 1 to 10 | Nc1ccn([C@@H]2O[C@@](COP(=O)(O)OP(=O)(O)OP(=O)(O)O)(CC(F)F)[C@@H](O)[C@H]2F)c(=O)n1 [Compound 272a]
47 | < 1 | C#C[C@@]1(O)[C@H](O)[C@@H](COP(=O)(O)OP(=O)(O)OP(=O)(O)O)O[C@H]1n1cnc2c(N)ncnc21 [Compound 289a]
48 | < 1 | C#C[C@@]1(O)[C@H](O)[C@@H](COP(=O)(O)OP(=O)(O)OP(=O)(O)O)O[C@H]1n1cnc2c(=O)[nH]c(N)nc21 [Compound 290a]
49 | < 1 | C#C[C@@]1(O)[C@H](O)[C@@H](COP(=O)(O)OP(=O)(O)OP(=O)(O)O)O[C@H]1n1ccc2c(N)ncnc21 [Compound 292a]
50 | 1 to 10 | C[C@]1(N=[N+]=[N-])[C@H](n2ccc(N)nc2=O)O[C@](F)(COP(=O)(O)OP(=O)(O)OP(=O)(O)O)[C@H]1O [Compound 302a]
51 | 10 to 100 | C[C@]1(N)[C@H](n2ccc(N)nc2=O)O[C@](F)(COP(=O)(O)OP(=O)(O)OP(=O)(O)O)[C@H]1O [Compound 303a]
52 | 10 to 100 | C[C@@]1(Cl)[C@H](O)[C@@](CF)(COP(=O)(O)OP(=O)(O)OP(=O)(O)O)O[C@H]1n1ccc(=O)[nH]c1=O [Compound 306a]
53 | 1 to 10 | C#C[C@]1(F)[C@H](n2ccc(=O)[nH]c2=O)O[C@](F)(COP(=O)(O)OP(=O)(O)OP(=O)(O)O)[C@H]1O [Compound 313a]
54 | 1 to 10 | Nc1ccn([C@@H]2O[C@@](COP(=O)(O)OP(=O)(O)OP(=O)(O)O)(C(F)F)[C@@H](O)[C@H]2F)c(=O)n1 [Compound 329a]
55 | 1 to 10 | C=C[C@]1(O)[C@H](n2ccc(=O)[nH]c2=O)O[C@](F)(COP(=O)(O)OP(=O)(O)OP(=O)(O)O)[C@H]1O [Compound 330a]
56 | < 1 | N#C[C@@]1(n2ccc(=O)[nH]c2=O)O[C@](CF)(COP(=O)(O)OP(=O)(O)OP(=O)(O)O)[C@@H](O)[C@H]1O [Compound 331a]
57 | < 1 | N#C[C@@]1(n2ccc(N)nc2=O)O[C@](CF)(COP(=O)(O)OP(=O)(O)OP(=O)(O)O)[C@@H](O)[C@H]1O [Compound 332a]
58 | 1 to 10 | C[C@]1(O)[C@H](n2cnc3c(N)ncnc32)O[C@](F)(COP(=O)(O)OP(=O)(O)OP(=O)(O)O)[C@H]1O [Compound 333a]
59 | < 1 | C[C@]1(COP(=O)(O)OP(=O)(O)OP(=O)(O)O)O[C@@H](n2cnc3c(=O)[nH]c(N)nc32)[C@H](O)[C@@H]1O [Compound 334a]
